One experiment has as its target TLR4/MD2/CD14 (Homo sapiens, UniProt O00206+Q9Y6Y9). The experiment in a line: Luciferase reporter assay in HEK-293+TLR4/MD2/CD14 cells. The format is cell-based. The following applies: corrected on renilla activity; ratios compared to non-stimulated cells; cells lysed 24 h after ligand. The method, then:
(§1) Stable immortalized HEK-293+TLR2/6 and HEK-293+TLR4/MD2/CD14 (Invitrogen) cells were seeded in 6-well plates in 1× DMEM supplemented with 5% FBS, 1 mM glutamine, amino acids not essential 1× and pyruvate 0.01%. At 80% confluency, pcon3A-luciferase (pcon3A motif responses to KNFB activation) and TK-renilla vectors (99:1 ratio, respectively) were transfected with metafectene. The transfection medium was changed after 24 hours, and the cells were seeded in 96-well plates. Ligands were added 24 hours later at 80% confluence and cells were lysed after 24 h. Luciferase activity was read using the TwinLite kit (Perkin Elmer) on a Fluo Star Optima (BMG) plate reader and corrected based on renilla activity (three replicates per condition). All ratios were compared to the control condition (non-stimulated cells). We used Pam3CSK4, FSL-1, and Escherichia coli LPS as control ligands with agonistic effect mediated by TLR2/1, TLR2/6, and TLR4 receptors, respectively. TNF alpha was used as a positive control in all cell lines.

In another experiment the target is TLR2/6 (Homo sapiens, UniProt O60603+Q9Y2C9). The experiment in a line: Luciferase reporter assay in HEK-293+TLR2/6 cells. The experiment is classed as cell-based. The following applies: corrected on renilla activity; ratios compared to non-stimulated cells; cells lysed 24 h after ligand. Here is the method: as §1
For orientation: Reporter assays use an easily measured gene product as a stand-in for the process of interest.

Chain of TLR4/MD2/CD14 (Q9Y6Y9 19-160): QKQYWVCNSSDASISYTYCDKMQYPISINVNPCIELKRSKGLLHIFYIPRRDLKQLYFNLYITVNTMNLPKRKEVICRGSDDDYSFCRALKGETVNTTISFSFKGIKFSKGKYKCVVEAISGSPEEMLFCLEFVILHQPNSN
Chain of TLR4/MD2/CD14 (O00206 24-839): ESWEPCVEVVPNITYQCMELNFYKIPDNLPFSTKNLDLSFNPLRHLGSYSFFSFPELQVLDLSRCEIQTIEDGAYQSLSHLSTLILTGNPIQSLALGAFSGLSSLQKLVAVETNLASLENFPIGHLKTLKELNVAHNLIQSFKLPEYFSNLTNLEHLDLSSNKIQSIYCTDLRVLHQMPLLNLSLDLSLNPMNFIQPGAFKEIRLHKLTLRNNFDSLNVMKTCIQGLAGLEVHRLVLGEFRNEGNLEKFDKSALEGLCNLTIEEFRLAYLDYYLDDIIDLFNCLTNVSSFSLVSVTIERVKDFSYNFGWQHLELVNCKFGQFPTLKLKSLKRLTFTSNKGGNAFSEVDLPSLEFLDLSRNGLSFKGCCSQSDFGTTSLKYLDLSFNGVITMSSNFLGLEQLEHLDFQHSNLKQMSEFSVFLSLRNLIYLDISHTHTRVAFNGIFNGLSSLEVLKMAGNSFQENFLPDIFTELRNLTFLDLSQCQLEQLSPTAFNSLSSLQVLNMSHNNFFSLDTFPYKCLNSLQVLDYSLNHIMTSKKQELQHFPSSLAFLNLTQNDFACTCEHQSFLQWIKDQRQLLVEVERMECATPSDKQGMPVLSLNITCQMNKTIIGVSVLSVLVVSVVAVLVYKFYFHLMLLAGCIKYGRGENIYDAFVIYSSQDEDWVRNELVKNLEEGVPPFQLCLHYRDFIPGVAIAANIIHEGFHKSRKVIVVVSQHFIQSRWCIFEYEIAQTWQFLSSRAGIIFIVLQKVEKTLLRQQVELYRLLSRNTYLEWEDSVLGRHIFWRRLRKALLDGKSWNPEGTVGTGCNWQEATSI
Chain of TLR2/6 (O60603 21-784): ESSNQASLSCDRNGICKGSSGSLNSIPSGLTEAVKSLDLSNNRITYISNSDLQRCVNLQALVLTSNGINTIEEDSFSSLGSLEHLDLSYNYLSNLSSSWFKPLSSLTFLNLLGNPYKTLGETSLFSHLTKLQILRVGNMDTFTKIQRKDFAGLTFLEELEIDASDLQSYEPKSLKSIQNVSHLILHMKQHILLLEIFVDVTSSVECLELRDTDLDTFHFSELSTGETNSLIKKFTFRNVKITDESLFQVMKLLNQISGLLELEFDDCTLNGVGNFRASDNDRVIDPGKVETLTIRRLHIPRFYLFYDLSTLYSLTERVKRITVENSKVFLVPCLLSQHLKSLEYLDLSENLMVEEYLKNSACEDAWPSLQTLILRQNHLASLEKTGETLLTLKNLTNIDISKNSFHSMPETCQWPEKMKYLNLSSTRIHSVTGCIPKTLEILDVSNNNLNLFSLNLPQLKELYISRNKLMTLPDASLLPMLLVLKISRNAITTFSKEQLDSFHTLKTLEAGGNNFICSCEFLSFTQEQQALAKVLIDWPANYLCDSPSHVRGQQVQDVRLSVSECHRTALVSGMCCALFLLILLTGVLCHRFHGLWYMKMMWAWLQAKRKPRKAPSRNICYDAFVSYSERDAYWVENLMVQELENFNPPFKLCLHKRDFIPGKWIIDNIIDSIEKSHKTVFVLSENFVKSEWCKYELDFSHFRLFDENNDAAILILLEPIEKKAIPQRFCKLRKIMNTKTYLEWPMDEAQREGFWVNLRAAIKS
Chain of TLR2/6 (Q9Y2C9 32-796): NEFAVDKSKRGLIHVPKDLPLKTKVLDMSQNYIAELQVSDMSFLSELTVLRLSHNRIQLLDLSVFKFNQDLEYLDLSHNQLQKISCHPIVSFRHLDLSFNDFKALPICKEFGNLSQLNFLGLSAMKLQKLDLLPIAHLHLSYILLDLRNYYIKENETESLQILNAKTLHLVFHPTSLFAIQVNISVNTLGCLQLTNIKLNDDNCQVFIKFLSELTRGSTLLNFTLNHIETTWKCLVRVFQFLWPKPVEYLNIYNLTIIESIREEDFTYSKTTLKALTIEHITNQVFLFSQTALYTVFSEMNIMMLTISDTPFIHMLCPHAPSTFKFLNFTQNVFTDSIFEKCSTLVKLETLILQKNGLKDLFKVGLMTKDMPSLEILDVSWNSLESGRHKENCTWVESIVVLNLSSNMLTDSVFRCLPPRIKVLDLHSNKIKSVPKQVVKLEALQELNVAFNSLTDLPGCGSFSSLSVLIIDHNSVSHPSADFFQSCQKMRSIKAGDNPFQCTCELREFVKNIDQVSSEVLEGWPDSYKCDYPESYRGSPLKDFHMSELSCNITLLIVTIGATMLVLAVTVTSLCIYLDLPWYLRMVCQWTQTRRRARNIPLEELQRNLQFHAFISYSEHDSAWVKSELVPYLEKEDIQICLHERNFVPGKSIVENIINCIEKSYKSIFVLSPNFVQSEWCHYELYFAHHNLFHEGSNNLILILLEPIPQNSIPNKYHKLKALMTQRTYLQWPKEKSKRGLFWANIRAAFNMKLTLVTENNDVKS

As for Pam3CSK4, the HEK-TLR4 luciferase activity on TLR4/MD2/CD14 was 1.112 fold vs non-stimulated cells. Also, the HEK-TLR2 luciferase activity on TLR2/6 was 4.079 fold vs non-stimulated cells.

For the substance FSL-1, on TLR4/MD2/CD14, the HEK-TLR4 luciferase activity was 1.123 fold vs non-stimulated cells. The HEK-TLR2 luciferase activity on TLR2/6 is 2.195 fold vs non-stimulated cells.

Source of the values: patent US20260000705A1, “LIPOPOLYSACCHARIDE FOR USE AS A MEDICAMENT” (priority 2022, published 2026).
